# Measured values reported in patent publication US5347012A, “Naphthothiopyranone derivatives” (Taisho Pharmaceutical Co., Ltd., priority 1990, dated 1994).
# System: Emesis induced by cisplatin
# Assay: Anti-vomiting effect test: inhibition of cisplatin-induced emesis in suncus
# Type: in vivo
# Details: 45 min before cisplatin 30 mg/kg i.v., emesises over 2 hours; for % value to control (number of emesises): control = 100%
# From the text: Emesis induced by cisplatin is known to be inhibited by antagonists at 5-HT3 receptors. The anti-vomiting effect of the compound of the present invention was compared with that of the compound described in Example of Japanese Patent Kokai 2-209876 according to the method of Matsumoto et al [Japanese Journal of Pharmacology, vol. 48, pp. 303-306 (1988)].
# The compound obtained in Example 4 (hereinafter referred to as "Compound A") and the compound described in Example 1 of Japanese Patent Kokai 2-209876 (hereinafter referred to as "Compound B") were each suspended in 0.4% aqueous carboxymethylcellulose solution to give test samples.
# Group each of six suncus of either sex weighing 40-60 g (male) and 30-50 g (female) were used. Each animal was placed with a chronic intravenous cannula 3 days before vomiting test. The samples prepared above were orally administered in the doses of 0.03-3 mg/kg to each group of the animals. After 45 minutes 30 mg/kg of cisplatin was administered intravenously, and number of emesises was determined for a period of 2 hours. Number of emesises for a period of 2 hours of a control group treated with 0.4% carboxymethylcellulose suspension alone was determined as well.
# Number of emesises obtained above was expressed as compared with 100% of the control, and IC50 value was calculated by number of emesises.
structure (smiles),measurement,setting,value
"Cc1nccn1Cc1csc2ccc3ccccc3c2c1=O.Cl [Compound A, 2-[(2-Methyl-1-imidazolyl)methyl]-1H-naphtho-[2,1-b]thiopyran-1-one hydrochloride]",% value to control (number of emesises),0.03 mg/kg oral,77.8%
same,% value to control (number of emesises),0.3 mg/kg oral,17.0%
same,% value to control (number of emesises),3 mg/kg oral,4.4%
same,ED50,"oral, doses 0.03-3 mg/kg, read-out: IC50 value (number of emesises)",0.0904 mg/kg
